Assay results from patent publication US10822318B2, “Lactone-based probes and methods of use thereof” (REGENTS OF THE UNIVERSITY OF MINNESOTA, priority 2017, dated 2020).

Experiments:
[1] = tested on: PBPs; assay: Gel-based analysis of PBP labeling by β-lactone probes in S. pneumoniae cells; type: cell-based; conditions: S. pneumoniae whole cells, probe 5 μg/ml, 20 min
Experimental: Strain IU1945, an unencapsulated derivative of serotype 2 S. pneumoniae strain D39, was grown statically in brain heart infusion (BHI) medium in 100×17 mm tubes by incubation in an atmosphere of 5% CO2 at 37° C. to an OD620 of ˜0.2. For labeling experiments, overnight cultures that were still in exponential phase (OD620=0.1-0.4) were diluted to OD620=0.002-0.004 and grown as above. Samples with OD620=0.15-0.20 were utilized in labeling experiments conducted as previously described (Kocaoglu, O, et al. (2013) Curr Protoc Chem Biol 5, 239), and summarized as follows: Cell pellets from 1.5 ml of S. pneumoniae cultures were harvested by centrifugation (16,100×g for 2 min at RT) and washed with phosphate buffered saline (PBS; pH 7.4). […] The protein concentration was measured by NanoDrop 1000 Spectrophotometer (Thermo Scientific) or NanoPhotometer P330 (IMPLEN). […] The protein bands were separated by gel electrophoresis for 1.5 h at 180 V, 400 mA, 60 W. The gel was rinsed with distilled water three times before fluorescence scanning. […]
(§1) After SDS-PAGE, labeled proteins were visualized at 50-μm resolution in gels using a Typhoon 9210 gel scanner (Amersham Biosciences) with 580-nm bandpass filter for TAMRA, 526-nm short-pass filter for fluorescein and BODIPY FL, and 670-nm bandpass filter for BODIPY 650/665. All gel images were analyzed using ImageJ software (National Institutes of Health). […]

[2] = tested on: PBPs; assay: Gel-based analysis of β-lactone probes applied to Bacillus subtilis PY79 cells; type: cell-based; conditions: B. subtilis PY79 cells, probe 5 μg/ml
Experimental: Bacillus subtilis strain PY79, was grown in Luria Bertani (LB) medium in 100×17 mm tubes by incubation at 37° C., shaking at 200 rpm. For labeling experiments, overnight cultures were diluted to OD600=0.01-0.05 and grown as above. Samples with OD600=0.35-0.40 were utilized in labeling experiments conducted as previously described (Kocaoglu, O, et al. (2013) Curr Protoc Chem Biol 5, 239), and summarized as follows: Cell pellets from 1.0 ml of B. subtilis cultures were harvested by centrifugation (8,000×g for 2 min at RT) and washed with phosphate buffered saline (PBS; pH 7.4). […] The protein concentration was measured by NanoDrop 1000 Spectrophotometer (Thermo Scientific) or NanoPhotometer P330 (IMPLEN). […] The protein bands were separated by gel electrophoresis for 1.5 h at 180 V, 400 mA, 60 W. The gel was rinsed with distilled water three times before fluorescence scanning (method description for FIGS. 10a and 10b). […]
as §1

(2S,3R)-β-lactone-L-Phe-fluorescein [Probe 7FL]
PBPs labeled (gel-based labeling profile) [1]: only PBP1b and PBP2x | PBPs labeled (gel-based labeling profile) [2]: comparable to the TAMRA probes

(2S, 3R)-β-lactone-D-Phe-TAMRA [Probe 8T]
PBPs labeled (gel-based labeling profile) [1]: PBP1b, PBP2x and PBP2b | PBPs labeled (gel-based labeling profile) [2]: PBP1, PBP2b and PBP5
